Data: patent publication US20240148821A1, “PHARMACEUTICAL USE OF CYCLIC PEPTIDE COMPOUND” (CHUGAI SEIYAKU KABUSHIKI KAISHA, priority 2021, published 2024)
Numbered stars: 1 amine (or outer) side, 2 acyl side, 3 side chain; on linkers, the order of the positions; unused ones are H or OH. Bridge positions count the residues as written; N and C are the ends. Square brackets hold non-standard residues; d marks the D form. Peptide text beside a SMILES is read from it. * marks the point of attachment. hPhe(3,5-F2-4-CF3) = N[C@@H](CCc1cc(F)c(C(F)(F)F)c(F)c1)C(=O)O; hPhe(3-Cl-4-CF3) = N[C@@H](CCc1ccc(C(F)(F)F)c(Cl)c1)C(=O)O; X23 = N#Cc1cc(CC[C@H](N[*:1])C(=O)[*:2])ccc1C(F)(F)F; NMePhe(4-CF3) = CN[C@@H](Cc1ccc(C(F)(F)F)cc1)C(=O)O; X102 = O=C([C@H](CCOc1ccc(Cl)cc1)N[*:1])[*:2]; NMePhe(4-Cl) = CN[C@@H](Cc1ccc(Cl)cc1)C(=O)O; X5 = CCN([C@@H](CC1CCCCC1)C(=O)[*:2])[*:1]; NMedβ3hAla = C[C@H](CC(=O)[*:2])N(C)[*:1]; NMeGly(cPent) = CN[C@H](C(=O)O)C1CCCC1; Phe(3-I) = N[C@@H](Cc1cccc(I)c1)C(=O)O; X38 = CN1CCN(CCN(CC(=O)[*:2])[*:1])CC1; NMeCha = CN[C@@H](CC1CCCCC1)C(=O)O; hhPhe = N[C@@H](CCCc1ccccc1)C(=O)O; Hyp = O=C(O)[C@@H]1C[C@@H](O)CN1; NMeChg = CN[C@H](C(=O)O)C1CCCCC1; NMeF = CN[C@@H](Cc1ccccc1)C(=O)O; NMeI = CC[C@H](C)[C@H](NC)C(=O)O; NMeD = CN[C@@H](CC(=O)O)C(=O)O; NMeL = CN[C@@H](CC(C)C)C(=O)O; NMeV = CN[C@H](C(=O)O)C(C)C; d(β3hA) = C[C@@H](N)CC(=O)O; Morpholide = C1CN(*)CCO1; NMeA = CN[C@@H](C)C(=O)O; NMeAib = CNC(C)(C)C(=O)O; Piperidide = C1CCN(*)CC1; Pyrrolidide = C1CCN(*)C1; Ac5c = NC1(C(=O)O)CCCC1; Aze = O=C(O)[C@@H]1CCN1; Sar = CNCC(=O)O

Target: protein-protein interaction between Kras and SOS1 (biotin-tagged human Kras loaded with GDP, His-tagged human SOS1) (Homo sapiens (Human), UniProt P01116, G12D)
Test: Protein-protein interaction inhibition between Kras and SOS1 (KrasG12D-SOS PPI) using AlphaScreen;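 further: kras produced in E. coli, Ni-coupled donor beads and streptavidin acceptor beads, excitation 680 nm with emission detected at 520–620 nm via singlet oxygen transfer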
Type: biochemical
Conditions: AlphaScreen; biotin-tagged human Kras loaded with GDP, His-tagged human SOS1; read-out: KRAS G12D-SOS PPI IC50

Compound | IC50
CC[C@H](C)[C@@H]1NC(=O)[C@H](CC(C)C)N(C)C(=O)C[C@@H](C(=O)N2CCCCC2)N(C)C(=O)[C@H](C2CCCC2)N(C)C(=O)C2(CCCC2)NC(=O)[C@@H]2CCCN2C(=O)[C@H](CCc2ccc(C(F)(F)F)c(C#N)c2)NC(=O)CN(C)C(=O)[C@H](CC2CCCCC2)N(C)C(=O)[C@@H]2CCN2C(=O)[C@H](C)N(C)C1=O [Compound 2072] ([NMeL]I[NMeA][Aze][NMeCha][Sar][X23]P[Ac5c][NMeGly(cPent)][NMeD]-Piperidide; lactam N-11 (inferred); C-terminus assumed) | 0.42 nM
CC[C@H](C)[C@@H]1NC(=O)[C@H](C)N(C)C(=O)C[C@@H](C(=O)N2CCCCC2)N(C)C(=O)[C@H](C(C)C)N(C)C(=O)C2(CCCC2)NC(=O)[C@@H]2CCCN2C(=O)[C@H](CCCc2ccccc2)NC(=O)CN(C)C(=O)[C@H](CC2CCCCC2)N(C)C(=O)[C@@H]2CCN2C(=O)[C@H](C)N(C)C1=O [Compound 659] ([NMeA]I[NMeA][Aze][NMeCha][Sar][hhPhe]P[Ac5c][NMeV][NMeD]-Piperidide; lactam N-11) | 130 nM
CC[C@H](C)[C@@H]1NC(=O)[C@H](CC(C)C)N(C)C(=O)C[C@@H](C)NC(=O)[C@H]([C@@H](C)CC)N(C)C(=O)C2(CCCC2)NC(=O)[C@@H]2CCCN2C(=O)[C@H](CCc2ccc(C(F)(F)F)c(Cl)c2)NC(=O)CN(C)C(=O)[C@H](CC2CCCCC2)N(C)C(=O)[C@@H]2CCN2C(=O)[C@H](C)N(C)C1=O [Compound 1654] (cyclo([Ac5c][NMeI][d(β3hA)][NMeL]I[NMeA][Aze][NMeCha][Sar][hPhe(3-Cl-4-CF3)]P)) | 22 nM
CC[C@H](C)[C@@H]1NC(=O)[C@H](CC(C)C)N(C)C(=O)C[C@@H](C(=O)N2CCCCC2)N(C)C(=O)[C@H]([C@@H](C)CC)N(C)C(=O)C2(CCCC2)NC(=O)[C@@H]2CCCN2C(=O)[C@H](CCc2ccc(C(F)(F)F)c(Cl)c2)NC(=O)CN(C)C(=O)[C@H](CC2CCCCC2)N(C)C(=O)[C@@H]2CCN2C(=O)[C@H](C)N(C)C1=O [Compound 1722] ([NMeL]I[NMeA][Aze][NMeCha][Sar][hPhe(3-Cl-4-CF3)]P[Ac5c][NMeI][NMeD]-Piperidide; lactam N-11) | 2.8 nM
CC[C@H](C)[C@@H]1NC(=O)[C@H]([C@@H](C)CC)N(C)C(=O)C[C@@H](C)N(C)C(=O)[C@H](C(C)C)N(C)C(=O)C(C)(C)N(C)C(=O)[C@@H]2CCCN2C(=O)[C@H](CCc2ccc(C(F)(F)F)c(Cl)c2)NC(=O)CN(C)C(=O)[C@H](CC2CCCCC2)N(C)C(=O)[C@@H]2CCN2C(=O)[C@H](C)N(C)C1=O [Compound 2159, (5S,8S,11S,15R,18S,23aS,29S,35S,37aS)-8,11-di((S)-sec-butyl)-29-(3-chloro-4-(trifluoromethyl)phenethyl)-35-(cylohexylmethyl)-18-isopropyl-5,6,12,15,16,19,21,21,22,33,36-undecamethyltetracosahydro-2H-azeto[2,1-u]pyrrolo[2,1-i] [1,4,7,10,13,16,19,22,25,28,31]undecaazacyclotetratriacontyne-4,7,10,13,17,20,23,28,31,34,37(14H)-undecone] (cyclo([Aze][NMeCha][Sar][hPhe(3-Cl-4-CF3)]P[NMeAib][NMeV][NMedβ3hAla][NMeI]I[NMeA])) | 3.5 nM
CCO[C@@H]1C[C@H]2C(=O)NC3(CCCC3)C(=O)N(C)[C@@H](CC(C)C)C(=O)N(C)[C@H](C(=O)N3CCOCC3)CC(=O)N(C)[C@@H](CC(C)C)C(=O)N[C@@H]([C@@H](C)CC)C(=O)N(C)CC(=O)N(C)CC(=O)N(C)[C@@H](CC3CCCCC3)C(=O)N(C)CC(=O)N[C@@H](CCc3ccc(C(F)(F)F)c(Cl)c3)C(=O)N2C1 [Compound 1785] ([NMeL]I[Sar][Sar][NMeCha][Sar][hPhe(3-Cl-4-CF3)][Hyp](Et)[Ac5c][NMeL][NMeD]-Morpholide; lactam N-11) | 0.45 nM
CCO[C@@H]1C[C@H]2C(=O)N(C)[C@@H](Cc3ccccc3)C(=O)N(C)[C@@H](CC(C)C)C(=O)N[C@H](C(=O)N3CCCC3)CC(=O)N(C)[C@@H](C)C(=O)N[C@@H]([C@@H](C)CC)C(=O)N(C)CC(=O)N(C)CC(=O)N(C)[C@@H](Cc3ccc(Cl)cc3)C(=O)N(C)CC(=O)N[C@@H](Cc3cccc(I)c3)C(=O)N2C1 [Compound 634] ([NMeA]I[Sar][Sar][NMePhe(4-Cl)][Sar][Phe(3-I)][Hyp](Et)[NMeF][NMeL]D-Pyrrolidide; lactam N-11) | 260 nM
CC[C@H](C)[C@@H]1NC(=O)[C@H](CC(C)C)N(C)C(=O)C[C@@H](C(=O)N2CCCCC2)N(C)C(=O)[C@H](C2CCCCC2)N(C)C(=O)C2(CCCC2)NC(=O)CN(CCN2CCN(C)CC2)C(=O)[C@H](CCc2ccc(C(F)(F)F)c(Cl)c2)NC(=O)CN(C)C(=O)[C@H](CC2CCCCC2)N(C)C(=O)CN(C)C(=O)CN(C)C1=O [Compound 2180, (11S,17S,26S,29S,33S,36S)-11-[2-[3-chloro-4-(trifluoromethyl)phenyl]ethyl]-36-cyclohexyl-17-(cyclohexylmethyl)-29-isobutyl-15,18,21,24,30,34,37-heptamethyl-9-[2-(4-methylpiperazin-1-yl)ethyl]-26-[(1S)-1-methylpropyl]-33-(piperidine-1-carbonyl)-6,9,12,15,18,21,24,27,30,34,37-undecazaspiro[4.33]octatriacontane-7,10,13,16,19,22,25,28,31,35,38-undecone] ([NMeL]I[Sar][Sar][NMeCha][Sar][hPhe(3-Cl-4-CF3)][X38][Ac5c][NMeChg][NMeD]-Piperidide; lactam N-11) | 0.93 nM
CC[C@H](C)[C@@H]1NC(=O)[C@H](C)N(C)C(=O)C[C@@H](C(=O)N2CCCCC2)N(C)C(=O)[C@H](C2CCCCC2)N(C)C(=O)C2(CCCC2)NC(=O)[C@@H]2CCCN2C(=O)[C@H](CCOc2ccc(Cl)cc2)NC(=O)CN(C)C(=O)[C@H](CC2CCCCC2)N(C)C(=O)CN(C)C(=O)CN(C)C1=O [Compound 2040, (3S,9S,18S,21S,25S,28S,34S)-3-[2-(4-chlorophenoxy)ethyl]-28-cyclohexyl-9-(cyclohexylmethyl)-7,10,13,16,21,22,26,29-octamethyl-18-[(1S)-1-methylpropyl]-25-(piperidine-1-carbonyl)spiro[1,4,7,10,13,16,19,22,26,29,32-undecazabicyclo[32.3.0]heptatriacontane-31,1-cyclopentane]-2,5,8,11,14,17,20,23,27,30,33-undecone] ([NMeA]I[Sar][Sar][NMeCha][Sar][X102]P[Ac5c][NMeChg][NMeD]-Piperidide; lactam N-11) | 150 nM
CC[C@H](C)[C@@H]1NC(=O)[C@H](CC(C)C)N(C)C(=O)C[C@@H](C)N(C)C(=O)[C@H](C2CCCCC2)N(C)C(=O)C2(CCCC2)NC(=O)[C@@H]2CCCN2C(=O)[C@H](CCc2cc(F)c(C(F)(F)F)c(F)c2)NC(=O)CN(C)C(=O)[C@H](Cc2ccc(C(F)(F)F)cc2)N(C)C(=O)[C@@H]2CCN2C(=O)[C@H](C)N(C)C1=O [Compound 39] (cyclo([Ac5c][NMeChg][NMedβ3hAla][NMeL]I[NMeA][Aze][NMePhe(4-CF3)][Sar][hPhe(3,5-F2-4-CF3)]P)) | 11 nM
CC[C@H](C)[C@@H]1NC(=O)[C@H](CC(C)C)N(C)C(=O)C[C@@H](C(=O)N2CCCCC2)N(C)C(=O)[C@H](C(C)C)N(C)C(=O)C2(CCCC2)NC(=O)[C@@H]2CCCN2C(=O)[C@H](CCc2ccc(C(F)(F)F)c(Cl)c2)NC(=O)CN(C)C(=O)[C@H](CC2CCCCC2)N(CC)C(=O)[C@@H]2CCN2C(=O)[C@H](C)N(C)C1=O [Compound 23] ([NMeL]I[NMeA][Aze][X5][Sar][hPhe(3-Cl-4-CF3)]P[Ac5c][NMeV][NMeD]-Piperidide; lactam N-11) | 2.7 nM
